Patent US9686986B2, “Herbicidal compounds” (SYNGENTA LIMITED, priority 2011, dated 2017)

Tests used:
Assay in all cases: Glasshouse herbicide test, pre- and post-emergence, percentage damage
Format in all cases: in vivo
[1] = test system: Amaranthus retoflexus (AMARE); conditions: 1000 g/h, evaluated after 13 days; for percentage damage caused to the plant, AMARE, POST Application: post-emergence; for percentage damage caused to the plant, AMARE, PRE Application: pre-emergence
Description: (§1) Seeds of a variety of test species are sown in standard soil in pots (Alopecurus myosuroides (ALOMY), Setaria faberi (SETFA), Stellaria media (STEME), Echinochloa crus-galli (ECHCG), Solanum nigrum (SOLNI), Amaranthus retoflexus (AMARE), Ipomoea hederacea (IPOHE), Lolium perenne (LOLPE). After cultivation for one day (pre-emergence) or after 8 days cultivation (post-emergence) under controlled conditions in a glasshouse (at 24/16° C., day/night; 14 hours light; 65% humidity), the plants are sprayed with an aqueous spray solution derived from the formulation of the technical active ingredient in acetone/water (50:50) solution containing 0.5% Tween 20 (polyoxyethelyene sorbitan monolaurate, CAS RN 9005-64-5). Compounds ae applied at 1000 g/h. The test plants are then grown in a glasshouse under controlled conditions in a glasshouse (at 24/16° C., day/night; 14 hours light; 65% humidity) and watered twice daily. After 13 days for pre and post-emergence, the test is evaluated for the percentage damage caused to the plant. The biological activities are shown in the following table on a five point scale (5=80-100%; 4=60-79%; 3=40-59%; 2=20-39%; 1=0-19%).

DIGSA = conditions: 1000 g/h, evaluated after 13 days, five point scale; for percentage damage caused to the plant, DIGSA, POST Application: post-emergence; for percentage damage caused to the plant, DIGSA, PRE Application: pre-emergence
Description: [The source words this procedure for another organism and reports this organism under the same test.] as §1

Lolium perenne (LOLPE) = conditions: 1000 g/h, evaluated after 13 days, five point scale; for percentage damage caused to the plant, LOLPE, POST Application: post-emergence; for percentage damage caused to the plant, LOLPE, PRE Application: pre-emergence
Description: as §1

Stellaria media (STEME) = conditions: 1000 g/h, evaluated after 13 days, five point scale; for percentage damage caused to the plant, STEME, POST Application: post-emergence; for percentage damage caused to the plant, STEME, PRE Application: pre-emergence
Description: as §1

[2] = test system: Alopecurus myosuroides (ALOMY); conditions: 1000 g/h, evaluated after 13 days, five point scale; for percentage damage caused to the plant, ALOMY, POST Application: post-emergence; for percentage damage caused to the plant, ALOMY, PRE Application: pre-emergence
Description: as §1

[3] = test system: Echinochloa crus-galli (ECHCG); conditions: 1000 g/h, evaluated after 13 days, five point scale; for percentage damage caused to the plant, ECHCG, POST Application: post-emergence; for percentage damage caused to the plant, ECHCG, PRE Application: pre-emergence
Description: as §1

[4] = test system: Ipomoea hederacea (IPOHE); conditions: 1000 g/h, evaluated after 13 days, five point scale; for percentage damage caused to the plant, IPOHE, POST Application: post-emergence; for percentage damage caused to the plant, IPOHE, PRE Application: pre-emergence
Description: as §1

Setaria faberi (SETFA) = conditions: 1000 g/h, evaluated after 13 days, five point scale; for percentage damage caused to the plant, SETFA, POST Application: post-emergence; for percentage damage caused to the plant, SETFA, PRE Application: pre-emergence
Description: as §1

Solanum nigrum (SOLNI) = conditions: 1000 g/h, evaluated after 13 days, five point scale; for percentage damage caused to the plant, SOLNI, POST Application: post-emergence; for percentage damage caused to the plant, SOLNI, PRE Application: pre-emergence
Description: as §1

## CS(=O)(=O)c1ccc(C(=O)Nc2nnn[nH]2)c(Cl)c1COCC(F)(F)F [Compound 1.002]
[1]; five point scale (Table B2)
  percentage damage caused to the plant, AMARE, POST Application: 5 (5=80-100%)
  percentage damage caused to the plant, AMARE, PRE Application: 5 (5=80-100%)
DIGSA
  percentage damage caused to the plant, DIGSA, POST Application: 1 (1=0-19%)
  percentage damage caused to the plant, DIGSA, PRE Application: 1 (1=0-19%)
Lolium perenne (LOLPE)
  percentage damage caused to the plant, LOLPE, POST Application: 1 (1=0-19%)
  percentage damage caused to the plant, LOLPE, PRE Application: 1 (1=0-19%)
Stellaria media (STEME)
  percentage damage caused to the plant, STEME, POST Application: 2 (2=20-39%)
  percentage damage caused to the plant, STEME, PRE Application: 1 (1=0-19%)

## Cc1nc(C(C)F)ccc1C(=O)Nc1nnnn1C (stereo not shown) [Compound 1.006]
[1]; five point scale (Table B2)
  percentage damage caused to the plant, AMARE, POST Application: 5 (5=80-100%)
  percentage damage caused to the plant, AMARE, PRE Application: 5 (5=80-100%)
DIGSA
  percentage damage caused to the plant, DIGSA, POST Application: 5 (5=80-100%)
  percentage damage caused to the plant, DIGSA, PRE Application: 4 (4=60-79%)
Lolium perenne (LOLPE)
  percentage damage caused to the plant, LOLPE, POST Application: 5 (5=80-100%)
  percentage damage caused to the plant, LOLPE, PRE Application: 4 (4=60-79%)
Stellaria media (STEME)
  percentage damage caused to the plant, STEME, POST Application: 5 (5=80-100%)
  percentage damage caused to the plant, STEME, PRE Application: 4 (4=60-79%)

## COCc1nc(C(C)F)ccc1C(=O)Nc1nnnn1C (stereo not shown) [Compound 1.007]
[1]; five point scale (Table B2)
  percentage damage caused to the plant, AMARE, POST Application: 5 (5=80-100%)
  percentage damage caused to the plant, AMARE, PRE Application: 5 (5=80-100%)
DIGSA
  percentage damage caused to the plant, DIGSA, POST Application: 5 (5=80-100%)
  percentage damage caused to the plant, DIGSA, PRE Application: 3 (3=40-59%)
Lolium perenne (LOLPE)
  percentage damage caused to the plant, LOLPE, POST Application: 2 (2=20-39%)
  percentage damage caused to the plant, LOLPE, PRE Application: 1 (1=0-19%)
Stellaria media (STEME)
  percentage damage caused to the plant, STEME, POST Application: 5 (5=80-100%)
  percentage damage caused to the plant, STEME, PRE Application: 4 (4=60-79%)

## Cc1ccc([N+](=O)[O-])c(C(=O)Nc2nnnn2C)c1 [Compound 1.013]
[2]
  percentage damage caused to the plant, ALOMY, POST Application: 2 (2=20-39%)
  percentage damage caused to the plant, ALOMY, PRE Application: 2 (2=20-39%)
[1]; five point scale (Table B1)
  percentage damage caused to the plant, AMARE, POST Application: 4 (4=60-79%)
  percentage damage caused to the plant, AMARE, PRE Application: 5 (5=80-100%)
[3]
  percentage damage caused to the plant, ECHCG, POST Application: 1 (1=0-19%)
  percentage damage caused to the plant, ECHCG, PRE Application: 1 (1=0-19%)
[4]
  percentage damage caused to the plant, IPOHE, POST Application: 5 (5=80-100%)
  percentage damage caused to the plant, IPOHE, PRE Application: 4 (4=60-79%)
Setaria faberi (SETFA)
  percentage damage caused to the plant, SETFA, POST Application: 1 (1=0-19%)
  percentage damage caused to the plant, SETFA, PRE Application: 2 (2=20-39%)
Solanum nigrum (SOLNI)
  percentage damage caused to the plant, SOLNI, POST Application: 5 (5=80-100%)
  percentage damage caused to the plant, SOLNI, PRE Application: 5 (5=80-100%)

## Cc1ccc(C(F)(F)F)c(C(=O)Nc2nnnn2C)c1 [Compound 1.014]
[2]
  percentage damage caused to the plant, ALOMY, POST Application: 3 (3=40-59%)
  percentage damage caused to the plant, ALOMY, PRE Application: 4 (4=60-79%)
[1]; five point scale (Table B1)
  percentage damage caused to the plant, AMARE, POST Application: 5 (5=80-100%)
  percentage damage caused to the plant, AMARE, PRE Application: 5 (5=80-100%)
[3]
  percentage damage caused to the plant, ECHCG, POST Application: 3 (3=40-59%)
  percentage damage caused to the plant, ECHCG, PRE Application: 3 (3=40-59%)
[4]
  percentage damage caused to the plant, IPOHE, POST Application: 5 (5=80-100%)
  percentage damage caused to the plant, IPOHE, PRE Application: 4 (4=60-79%)
Setaria faberi (SETFA)
  percentage damage caused to the plant, SETFA, POST Application: 1 (1=0-19%)
  percentage damage caused to the plant, SETFA, PRE Application: 1 (1=0-19%)
Solanum nigrum (SOLNI)
  percentage damage caused to the plant, SOLNI, POST Application: 5 (5=80-100%)
  percentage damage caused to the plant, SOLNI, PRE Application: 5 (5=80-100%)

## Cn1nnnc1NC(=O)c1ccccc1Cl [Compound 1.015]
[1]; five point scale (Table B2)
  percentage damage caused to the plant, AMARE, POST Application: 4 (4=60-79%)
  percentage damage caused to the plant, AMARE, PRE Application: 5 (5=80-100%)
DIGSA
  percentage damage caused to the plant, DIGSA, POST Application: 1 (1=0-19%)
  percentage damage caused to the plant, DIGSA, PRE Application: 1 (1=0-19%)
Lolium perenne (LOLPE)
  percentage damage caused to the plant, LOLPE, POST Application: 4 (4=60-79%)
  percentage damage caused to the plant, LOLPE, PRE Application: 3 (3=40-59%)
Stellaria media (STEME)
  percentage damage caused to the plant, STEME, POST Application: 4 (4=60-79%)
  percentage damage caused to the plant, STEME, PRE Application: 3 (3=40-59%)

## CCCn1nnnc1NC(=O)c1cccc(Cl)c1Cl [Compound 1.016]
[1]; five point scale (Table B2)
  percentage damage caused to the plant, AMARE, POST Application: 3 (3=40-59%)
  percentage damage caused to the plant, AMARE, PRE Application: 4 (4=60-79%)
DIGSA
  percentage damage caused to the plant, DIGSA, POST Application: 1 (1=0-19%)
  percentage damage caused to the plant, DIGSA, PRE Application: 1 (1=0-19%)
Lolium perenne (LOLPE)
  percentage damage caused to the plant, LOLPE, POST Application: 1 (1=0-19%)
  percentage damage caused to the plant, LOLPE, PRE Application: 1 (1=0-19%)
Stellaria media (STEME)
  percentage damage caused to the plant, STEME, POST Application: 1 (1=0-19%)
  percentage damage caused to the plant, STEME, PRE Application: 2 (2=20-39%)

## COc1ccc2cc(C(=O)Nc3nnn[nH]3)c(C(F)(F)F)nc2n1 [Compound 2.001]
[1]; five point scale (Table B2)
  percentage damage caused to the plant, AMARE, POST Application: 3 (3=40-59%)
  percentage damage caused to the plant, AMARE, PRE Application: 1 (1=0-19%)
DIGSA
  percentage damage caused to the plant, DIGSA, POST Application: 1 (1=0-19%)
  percentage damage caused to the plant, DIGSA, PRE Application: 1 (1=0-19%)
Lolium perenne (LOLPE)
  percentage damage caused to the plant, LOLPE, POST Application: 1 (1=0-19%)
  percentage damage caused to the plant, LOLPE, PRE Application: 1 (1=0-19%)
Stellaria media (STEME)
  percentage damage caused to the plant, STEME, POST Application: 3 (3=40-59%)
  percentage damage caused to the plant, STEME, PRE Application: 1 (1=0-19%)

## Cc1nc2nc(C(F)(F)F)c(C(=O)Nc3nnnn3C)cc2cc1F [Compound 2.002]
[1]; five point scale (Table B2)
  percentage damage caused to the plant, AMARE, POST Application: 5 (5=80-100%)
  percentage damage caused to the plant, AMARE, PRE Application: 5 (5=80-100%)
DIGSA
  percentage damage caused to the plant, DIGSA, POST Application: 4 (4=60-79%)
  percentage damage caused to the plant, DIGSA, PRE Application: 3 (3=40-59%)
Lolium perenne (LOLPE)
  percentage damage caused to the plant, LOLPE, POST Application: 2 (2=20-39%)
  percentage damage caused to the plant, LOLPE, PRE Application: 2 (2=20-39%)
Stellaria media (STEME)
  percentage damage caused to the plant, STEME, POST Application: 5 (5=80-100%)
  percentage damage caused to the plant, STEME, PRE Application: 3 (3=40-59%)

## COc1cc2cc(C(=O)Nc3nnnn3C)c(C(F)(F)F)nc2nc1C [Compound 2.003]
[1]; five point scale (Table B2)
  percentage damage caused to the plant, AMARE, POST Application: 5 (5=80-100%)
  percentage damage caused to the plant, AMARE, PRE Application: 5 (5=80-100%)
DIGSA
  percentage damage caused to the plant, DIGSA, POST Application: 4 (4=60-79%)
  percentage damage caused to the plant, DIGSA, PRE Application: 1 (1=0-19%)
Lolium perenne (LOLPE)
  percentage damage caused to the plant, LOLPE, POST Application: 2 (2=20-39%)
  percentage damage caused to the plant, LOLPE, PRE Application: 1 (1=0-19%)
Stellaria media (STEME)
  percentage damage caused to the plant, STEME, POST Application: 5 (5=80-100%)
  percentage damage caused to the plant, STEME, PRE Application: 1 (1=0-19%)
